Tests used:
HLA A*3001 = HLA A*3001 (Homo sapiens, UniProt P04439, D140H/D185E/E176W/F33S/G80R/H175R/K168Q/R138E/R41S); test: biochemical; format: binding
HLA A*3201 = HLA A*3201 (Homo sapiens, UniProt P04439, A270S/D101S/D185E/E176V/E277Q/F133L/G103R/G107R/G231S/H175R/I121M/I218V/I322F/K168Q/L105A/L300P/L318F/M331R/P208A/P217A/Q94H/R106L/R138Q/S129P/T104I/T323A/T345S/V100E/V321M/V358M); test: biochemical; format: binding
HLA A*6802 = HLA A*6802 (Homo sapiens, UniProt P04439, A269V/D140Y/D185E/E176V/E277Q/E87N/F33Y/G231S/I121R/I166T/I218V/L180W/L300P/L318F/N151K/P208A/P217A/Q86R/R138H/R169H/S129P/T345S/V36M); format: binding
HLA B*0702 = HLA B*0702 (Homo sapiens, UniProt P01889); format: binding; settings: positional scanning combinatorial 9-mer library; normalized to 1.0 for the best residue at each position
HLA B*0801 = HLA B*0801 (Homo sapiens, UniProt P01889, A93T/A95T/D138N/E176V/E187T/K202T/Q94N/R180D/S35A/V36M/Y33D/Y91F); test: biochemical; format: binding
HLA B*1501 = HLA B*1501 (Homo sapiens, UniProt P01889, A329T/A93T/A95T/C349S/D201E/D98Y/E187L/E204Q/E69M/E70A/K202T/N87E/Q94N/R155S/R180W/S121R/S35A/S48A/V306I/V36M/Y140S/Y91S); test: biochemical; format: binding
HLA B*1503 = HLA B*1503 (Homo sapiens, UniProt P01889, A329T/A93T/A95T/C349S/D201E/D98Y/E187L/E204Q/K202T/N87E/Q94N/R155S/R180L/S121R/S35A/V306I/V36M/Y140S/Y91S); test: biochemical; format: binding
HLA B*2705 = HLA B*2705 (Homo sapiens, UniProt P01889, D138H/D201E/E176V/E204Q/G107R/H137Y/K202T/N104T/N87E/Q56L/Q94K/R106L/R155S/R180L/S101D/S121N/S48T/Y140D/Y33H/Y91C); format: binding; settings: positional scanning combinatorial 9-mer library; normalized to 1.0 for the best residue at each position
HLA B*3501 = HLA B*3501 (Homo sapiens, UniProt P01889, A329T/A93T/A95T/C349S/D201E/D98Y/E176V/E187L/E204Q/E69T/I218V/K202T/L119I/Q94N/R155S/R180L/S121R/S35A/S48A/T118I/V127L/V306I/V36M/Y140S/Y91F); format: binding
HLA B*5101 = HLA B*5101 (Homo sapiens, UniProt P01889, A329T/A93T/A95T/C349S/D138N/D201E/D98Y/E187L/E204Q/E69T/G107R/I218V/K202T/L105A/L119W/N104I/Q94N/R106L/R155S/R180L/S101N/S121T/S35A/S48A/V306I/V36M/Y195H/Y91F); format: binding
HLA B*5301 = HLA B*5301 (Homo sapiens, UniProt P01889, A329T/A93T/A95T/C349S/D201E/D98Y/E176V/E187L/E204Q/E69T/G107R/I218V/K202T/L105A/L119I/N104I/Q94N/R106L/R155S/R180L/S101N/S121R/S35A/S48A/T118I/V127L/V306I/V36M/Y140S/Y91F); format: binding
HLA B*5401 = HLA B*5401 (Homo sapiens, UniProt P01889, A329T/C349S/D138N/D201E/E176V/E187T/E204Q/E69G/I76V/K202T/L119W/R155S/R180L/S121T/S35A/S48A/V127L/V306I/V36M/Y140L); format: binding
HLA B*5801 = HLA B*5801 (Homo sapiens, UniProt P01889, A329T/C349S/D201E/D98Y/E176V/E187L/E204Q/E69T/G107R/I218V/I90N/K202T/L105A/L119I/N104I/N87E/Q89R/Q94S/R106L/R155S/R180L/R86G/S101N/S121R/S35A/S48A/T118I/V127L/V306I/V36M/Y140S/Y91M); format: binding
HLA B*5802 = HLA B*5802 (Homo sapiens, UniProt P01889, A329T/C349S/D201E/D98Y/E176V/E187L/E204Q/E69T/G107R/I218V/I90N/K202T/L105A/N104I/N87E/Q89R/Q94S/R106L/R155S/R180L/R86G/S101N/S121W/S35A/S48A/V127L/V306I/V36M/Y140S/Y91M); format: binding
H-2 D^b = H-2 D^b (Mus musculus, UniProt P01899); format: binding
Sequence of H-2 D^b (P01887 21-119): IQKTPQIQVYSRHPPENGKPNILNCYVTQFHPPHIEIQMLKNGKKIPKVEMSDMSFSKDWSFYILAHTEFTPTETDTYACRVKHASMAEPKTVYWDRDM
Sequence of H-2 D^b (P01899 25-362): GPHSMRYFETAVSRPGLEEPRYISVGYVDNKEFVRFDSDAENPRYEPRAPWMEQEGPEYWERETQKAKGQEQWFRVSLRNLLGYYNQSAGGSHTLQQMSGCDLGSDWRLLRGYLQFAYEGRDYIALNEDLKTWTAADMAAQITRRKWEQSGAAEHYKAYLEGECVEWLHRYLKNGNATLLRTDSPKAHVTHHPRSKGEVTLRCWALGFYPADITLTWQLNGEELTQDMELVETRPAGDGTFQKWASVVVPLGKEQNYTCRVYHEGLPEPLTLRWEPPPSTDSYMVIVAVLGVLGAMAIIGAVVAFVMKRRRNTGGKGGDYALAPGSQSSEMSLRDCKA

H-2 D^d = H-2 D^d (Mus musculus, UniProt P01900); format: binding
Sequence of H-2 D^d (P01900 whole entry, looked up): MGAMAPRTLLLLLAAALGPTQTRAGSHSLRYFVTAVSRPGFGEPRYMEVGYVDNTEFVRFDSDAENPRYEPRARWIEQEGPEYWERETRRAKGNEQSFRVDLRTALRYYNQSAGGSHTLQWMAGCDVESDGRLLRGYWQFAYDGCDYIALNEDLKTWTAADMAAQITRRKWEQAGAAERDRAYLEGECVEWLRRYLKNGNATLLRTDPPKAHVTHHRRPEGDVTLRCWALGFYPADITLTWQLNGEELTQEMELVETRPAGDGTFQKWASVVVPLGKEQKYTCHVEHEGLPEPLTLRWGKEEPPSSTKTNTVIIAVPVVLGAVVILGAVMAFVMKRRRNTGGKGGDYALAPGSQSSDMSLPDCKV

H-2 K^k = H-2 K^k (Mus musculus, UniProt P04223); format: binding
Sequence of H-2 K^k (P01887 21-119): as the sequence (P01887 21-119) above
Sequence of H-2 K^k (P04223 22-369): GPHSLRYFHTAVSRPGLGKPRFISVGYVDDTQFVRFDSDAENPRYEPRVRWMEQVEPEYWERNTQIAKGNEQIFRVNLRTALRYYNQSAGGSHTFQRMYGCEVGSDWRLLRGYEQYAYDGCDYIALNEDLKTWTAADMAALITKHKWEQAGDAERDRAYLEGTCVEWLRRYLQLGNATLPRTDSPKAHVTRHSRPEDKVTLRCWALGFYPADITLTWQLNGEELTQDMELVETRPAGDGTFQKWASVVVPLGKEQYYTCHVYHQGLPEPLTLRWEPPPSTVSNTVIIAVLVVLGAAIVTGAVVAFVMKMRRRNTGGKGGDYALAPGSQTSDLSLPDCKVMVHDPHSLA

HLA A*0201 = HLA A*0201 (Homo sapiens, UniProt P04439, D140Y/D185E/D98H/E176V/E277Q/G131W/G231S/I119V/I121R/I166T/I218V/L300P/L318F/N151K/N90K/P208A/P217A/Q86G/Q94H/R138H/R169H/T345S); settings: positional scanning combinatorial 9-mer library; normalized to 1.0 for the best residue at each position

XXWXXXXXX [3064.0059]
Normalized average relative binding affinity (ARB), HLA A*3001 (HLA A*3001): 0.0080 | Normalized average relative binding affinity (ARB), HLA A*3201 (HLA A*3201): 0.95 | Normalized average relative binding affinity (ARB), HLA A*6802 (HLA A*6802): 0.70 | Normalized average relative binding affinity (ARB), HLA B*0702 (HLA B*0702): 0.14 | Normalized average relative binding affinity (ARB), HLA B*0801 (HLA B*0801): 0.19 | Normalized average relative binding affinity (ARB), HLA B*1501 (HLA B*1501): 0.16 | Normalized average relative binding affinity (ARB), HLA B*1503 (HLA B*1503): 0.35 | Normalized average relative binding affinity (ARB), HLA B*2705 (HLA B*2705): 0.68 | Normalized average relative binding affinity (ARB), HLA B*3501 (HLA B*3501): 0.61 | Normalized average relative binding affinity (ARB), HLA B*5101 (HLA B*5101): 0.47 | Normalized average relative binding affinity (ARB), HLA B*5301 (HLA B*5301): 0.076 | Normalized average relative binding affinity (ARB), HLA B*5401 (HLA B*5401): 1.0 | Normalized average relative binding affinity (ARB), HLA B*5801 (HLA B*5801): 0.29 | Normalized average relative binding affinity (ARB), HLA B*5802 (HLA B*5802): 0.95 | Normalized average relative binding affinity (ARB), H-2 Db (H-2 D^b): 0.18 | Normalized average relative binding affinity (ARB), H-2 Dd (H-2 D^d): 0.0028 | Normalized average relative binding affinity (ARB), H-2 Kk (H-2 K^k): 0.48 | Normalized average relative binding affinity (ARB), HLA A*0201 (HLA A*0201): 0.58

XXXAXXXXX [3064.0061]
Normalized average relative binding affinity (ARB), HLA A*3001 (HLA A*3001): 0.48 | Normalized average relative binding affinity (ARB), HLA A*3201 (HLA A*3201): 0.38 | Normalized average relative binding affinity (ARB), HLA A*6802 (HLA A*6802): 0.24 | Normalized average relative binding affinity (ARB), HLA B*0702 (HLA B*0702): 0.23 | Normalized average relative binding affinity (ARB), HLA B*0801 (HLA B*0801): 0.40 | Normalized average relative binding affinity (ARB), HLA B*1501 (HLA B*1501): 0.40 | Normalized average relative binding affinity (ARB), HLA B*1503 (HLA B*1503): 0.41 | Normalized average relative binding affinity (ARB), HLA B*2705 (HLA B*2705): 0.28 | Normalized average relative binding affinity (ARB), HLA B*3501 (HLA B*3501): 0.42 | Normalized average relative binding affinity (ARB), HLA B*5101 (HLA B*5101): 0.39 | Normalized average relative binding affinity (ARB), HLA B*5301 (HLA B*5301): 0.36 | Normalized average relative binding affinity (ARB), HLA B*5401 (HLA B*5401): 0.41 | Normalized average relative binding affinity (ARB), HLA B*5801 (HLA B*5801): 0.46 | Normalized average relative binding affinity (ARB), HLA B*5802 (HLA B*5802): 0.51 | Normalized average relative binding affinity (ARB), H-2 Db (H-2 D^b): 0.69 | Normalized average relative binding affinity (ARB), H-2 Dd (H-2 D^d): 0.52 | Normalized average relative binding affinity (ARB), H-2 Kk (H-2 K^k): 0.63 | Normalized average relative binding affinity (ARB), HLA A*0201 (HLA A*0201): 0.90

XXXCXXXXX [3064.0062]
Normalized average relative binding affinity (ARB), HLA A*3001 (HLA A*3001): 0.31 | Normalized average relative binding affinity (ARB), HLA A*3201 (HLA A*3201): 0.12 | Normalized average relative binding affinity (ARB), HLA A*6802 (HLA A*6802): 0.13 | Normalized average relative binding affinity (ARB), HLA B*0702 (HLA B*0702): 0.18 | Normalized average relative binding affinity (ARB), HLA B*0801 (HLA B*0801): 0.41 | Normalized average relative binding affinity (ARB), HLA B*1501 (HLA B*1501): 0.39 | Normalized average relative binding affinity (ARB), HLA B*1503 (HLA B*1503): 0.34 | Normalized average relative binding affinity (ARB), HLA B*2705 (HLA B*2705): 0.25 | Normalized average relative binding affinity (ARB), HLA B*3501 (HLA B*3501): 0.089 | Normalized average relative binding affinity (ARB), HLA B*5101 (HLA B*5101): 0.26 | Normalized average relative binding affinity (ARB), HLA B*5301 (HLA B*5301): 0.14 | Normalized average relative binding affinity (ARB), HLA B*5401 (HLA B*5401): 0.22 | Normalized average relative binding affinity (ARB), HLA B*5801 (HLA B*5801): 0.23 | Normalized average relative binding affinity (ARB), HLA B*5802 (HLA B*5802): 0.52 | Normalized average relative binding affinity (ARB), H-2 Db (H-2 D^b): 1.0 | Normalized average relative binding affinity (ARB), H-2 Dd (H-2 D^d): 0.56 | Normalized average relative binding affinity (ARB), H-2 Kk (H-2 K^k): 0.37 | Normalized average relative binding affinity (ARB), HLA A*0201 (HLA A*0201): 0.20

XXXDXXXXX [3064.0063]
Normalized average relative binding affinity (ARB), HLA A*3001 (HLA A*3001): 0.22 | Normalized average relative binding affinity (ARB), HLA A*3201 (HLA A*3201): 0.14 | Normalized average relative binding affinity (ARB), HLA A*6802 (HLA A*6802): 0.31 | Normalized average relative binding affinity (ARB), HLA B*0702 (HLA B*0702): 0.16 | Normalized average relative binding affinity (ARB), HLA B*0801 (HLA B*0801): 0.072 | Normalized average relative binding affinity (ARB), HLA B*1501 (HLA B*1501): 0.30 | Normalized average relative binding affinity (ARB), HLA B*1503 (HLA B*1503): 0.13 | Normalized average relative binding affinity (ARB), HLA B*2705 (HLA B*2705): 0.26 | Normalized average relative binding affinity (ARB), HLA B*3501 (HLA B*3501): 0.18 | Normalized average relative binding affinity (ARB), HLA B*5101 (HLA B*5101): 0.74 | Normalized average relative binding affinity (ARB), HLA B*5301 (HLA B*5301): 0.26 | Normalized average relative binding affinity (ARB), HLA B*5401 (HLA B*5401): 0.28 | Normalized average relative binding affinity (ARB), HLA B*5801 (HLA B*5801): 0.17 | Normalized average relative binding affinity (ARB), HLA B*5802 (HLA B*5802): 0.069 | Normalized average relative binding affinity (ARB), H-2 Db (H-2 D^b): 0.072 | Normalized average relative binding affinity (ARB), H-2 Dd (H-2 D^d): 0.30 | Normalized average relative binding affinity (ARB), H-2 Kk (H-2 K^k): 0.46 | Normalized average relative binding affinity (ARB), HLA A*0201 (HLA A*0201): 0.91
